Source: PubChem BioAssay (NCI)
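Values below derive from 48-hour exposures of cells grown in 96-well plates, with endpoints linearly interpolated between the two concentrations bracketing the appropriate inhibition level. Definition used: TGI = concentration required for complete inhibition of growth.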

What was measured:
Experiment in all cases: DTP human tumour cell line panel, 48 h
[1] = tested on: A498 renal
[2] = tested on: A549 NSCLC
[3] = tested on: ACHN renal
[4] = tested on: CAKI-1 renal
[5] = tested on: CCRF-CEM leukemia
[6] = tested on: COLO 205 colon
[7] = tested on: DU-145 prostate
[8] = tested on: EKVX NSCLC
[9] = tested on: HCT-116 colon
[10] = tested on: HCT-15 colon
[11] = tested on: HL-60(TB) leukemia
[12] = tested on: HOP-62 NSCLC
[13] = tested on: HOP-92 NSCLC
[14] = tested on: HS 578T breast
[15] = tested on: HT29 colon
[16] = tested on: IGROV1 ovarian
[17] = tested on: K-562 leukemia
[18] = tested on: KM12 colon
[19] = tested on: LOX IMVI melanoma
[20] = tested on: M14 melanoma
[21] = tested on: MALME-3M melanoma
[22] = tested on: MCF7 breast
[23] = tested on: MDA-MB-231 breast
[24] = tested on: MDA-MB-435
[25] = tested on: MDA-N
[26] = tested on: MOLT-4 leukemia
[27] = tested on: NCI-H226 lung
[28] = tested on: NCI-H23 lung
[29] = tested on: NCI-H460 lung
[30] = tested on: NCI/ADR-RES ovarian
[31] = tested on: OVCAR-3 ovarian
[32] = tested on: OVCAR-4 ovarian
[33] = tested on: OVCAR-5 ovarian
[34] = tested on: OVCAR-8 ovarian
[35] = tested on: PC-3 prostate
[36] = tested on: RPMI-8226 leukemia
[37] = tested on: RXF 393 renal
[38] = tested on: SF-268 CNS
[39] = tested on: SF-295 CNS
[40] = tested on: SF-539 CNS
[41] = tested on: SK-MEL-2 melanoma
[42] = tested on: SK-MEL-28 melanoma
[43] = tested on: SK-MEL-5 melanoma
[44] = tested on: SK-OV-3 ovarian
[45] = tested on: SN12C renal
[46] = tested on: SNB-19 CNS
[47] = tested on: SR leukemia
[48] = tested on: SW-620 colon
[49] = tested on: TK-10 renal
[50] = tested on: U251 CNS
[51] = tested on: UACC-257 melanoma
[52] = tested on: UACC-62 melanoma
[53] = tested on: UO-31 renal

Question: How did the TGI [1] turn out when O=C1OC(c2ccc(O)c(F)c2)(c2ccc(O)c(F)c2)c2cccc3cccc1c23 was run?
Answer: The TGI was over 25 µM.

Question: And the TGI [2]?
Answer: Its TGI is over 25 µM.

Question: What about the TGI [3] of the same compound?
Answer: Its TGI is over 25 µM.

Question: What about the TGI [4] of the same compound?
Answer: Its TGI is 10.1 µM.

Question: What about the TGI [5] of the same compound?
Answer: Its TGI is over 25 µM.

Question: What about the TGI [6] of the same compound?
Answer: The TGI was over 25 µM.

Question: What about the TGI [7] of the same compound?
Answer: Its TGI is over 25 µM.

Question: What about the TGI [8] of the same compound?
Answer: Its TGI is 19.4 µM.

Question: What about the TGI [9] of the same compound?
Answer: The TGI was over 25 µM.

Question: What about the TGI [10] of the same compound?
Answer: Its TGI is over 25 µM.

Question: And the TGI [11]?
Answer: The TGI was 18.9 µM.

Question: What about the TGI [12] of the same compound?
Answer: Its TGI is over 25 µM.

Question: And the TGI [13]?
Answer: The TGI was over 25 µM.

Question: What about the TGI [14] of the same compound?
Answer: Its TGI is over 25 µM.

Question: And the TGI [15]?
Answer: Its TGI is over 25 µM.

Question: And the TGI [16]?
Answer: The TGI was over 25 µM.

Question: And the TGI [17]?
Answer: Its TGI is over 25 µM.

Question: And the TGI [18]?
Answer: The TGI was over 25 µM.

Question: And the TGI [19]?
Answer: The TGI was over 25 µM.

Question: What about the TGI [20] of the same compound?
Answer: Its TGI is over 25 µM.

Question: And the TGI [21]?
Answer: Its TGI is over 25 µM.

Question: And the TGI [22]?
Answer: Its TGI is over 25 µM.

Question: And the TGI [23]?
Answer: The TGI was over 25 µM.

Question: And the TGI [24]?
Answer: The TGI was over 25 µM.

Question: What about the TGI [25] of the same compound?
Answer: Its TGI is over 25 µM.

Question: And the TGI [26]?
Answer: The TGI was over 25 µM.

Question: What about the TGI [27] of the same compound?
Answer: Its TGI is over 25 µM.

Question: And the TGI [28]?
Answer: The TGI was over 25 µM.

Question: And the TGI [29]?
Answer: Its TGI is over 25 µM.

Question: And the TGI [30]?
Answer: The TGI was over 25 µM.

Question: What about the TGI [31] of the same compound?
Answer: The TGI was over 25 µM.

Question: And the TGI [32]?
Answer: The TGI was 0.193 µM.

Question: And the TGI [33]?
Answer: The TGI was over 25 µM.

Question: And the TGI [34]?
Answer: The TGI was over 25 µM.

Question: And the TGI [35]?
Answer: Its TGI is over 25 µM.

Question: What about the TGI [36] of the same compound?
Answer: The TGI was over 25 µM.

Question: What about the TGI [37] of the same compound?
Answer: The TGI was over 25 µM.

Question: What about the TGI [38] of the same compound?
Answer: The TGI was over 25 µM.

Question: What about the TGI [39] of the same compound?
Answer: Its TGI is over 25 µM.

Question: And the TGI [40]?
Answer: The TGI was over 25 µM.

Question: What about the TGI [41] of the same compound?
Answer: The TGI was over 25 µM.

Question: What about the TGI [42] of the same compound?
Answer: The TGI was over 25 µM.

Question: What about the TGI [43] of the same compound?
Answer: Its TGI is over 25 µM.

Question: And the TGI [44]?
Answer: The TGI was over 25 µM.

Question: What about the TGI [45] of the same compound?
Answer: Its TGI is over 25 µM.

Question: What about the TGI [46] of the same compound?
Answer: The TGI was over 25 µM.

Question: And the TGI [47]?
Answer: The TGI was over 25 µM.

Question: And the TGI [48]?
Answer: Its TGI is over 25 µM.

Question: And the TGI [49]?
Answer: The TGI was over 25 µM.

Question: What about the TGI [50] of the same compound?
Answer: The TGI was over 25 µM.

Question: And the TGI [51]?
Answer: Its TGI is over 25 µM.

Question: What about the TGI [52] of the same compound?
Answer: The TGI was over 25 µM.

Question: What about the TGI [53] of the same compound?
Answer: The TGI was over 25 µM.
